Assay results taken from patent US9657033B2, “Tetrahydronaphthyridine and related bicyclic compounds for inhibition of RORγ activity and the treatment of disease” (Merck Sharp & Dohme Corp., priority 2012, dated 2017).

Key:
[1] = molecular target: T1, RORγ-LBD (Homo sapiens (Human), UniProt P51449); assay: RORγ-Ligand Binding Domain (LBD) TR-FRET Assay Protocol II; format: biochemical; conditions: purified RORγ-LBD, SRC1 peptide, overnight at 4° C.
Experimental: Part II—Procedures for RORγ-Ligand Binding Domain TR-FRET Assay Protocol II
HIS-tagged RORγ-LBD protein was expressed in SF9 cells using a baculovirus expression system. The RORγ-LBD protein was purified by […]. Separately, SF9 cells not expressing recombinant protein were lysed in TBS buffer (25 mM Tris, pH 8.0, 150 mM NaCl) under sonication. The lysate was added to the purified RORγ-LBD in a volume equivalent of 0.75 μL lysate (from 30,000 SF9 cells) per 75 femtomol of RORγ-LBD protein. The resulting mixture was diluted in assay buffer (50 mM Tris pH 7.0, 50 mM KCl, 1 mM EDTA, 0.1 mM DTT, 0.01% BSA) to obtain RORγ-LBD protein at a final concentration of 3 nM.
Compounds to be tested were injected to the assay plate using Acoustic Droplet Ejection technology by Echo 550 liquid handler (Labcyte, Calif.).
A stock of biotinylated-LXXLL peptide from coactivator SRC1 (Biotin-[…]) was prepared in assay buffer and added to each well (100 nM final concentration). A solution of Europium tagged anti-HIS antibody (1.25 nM final concentration) and APC-conjugated streptavidin (8 nM final concentration) were also added to each well.
The final assay mixture was incubated overnight at 4° C., and the fluorescence signal was measured on an Envision plate reader: (Excitation filter=340 nm; APC emission=665 nm; Europium emission=615 nm; dichroic mirror=D400/D630; delay time=100 μs, integration time=200 μs). The EC50 value for test compounds was calculated from the quotient of the fluorescence signal at 665 nm divided by the fluorescence signal at 615 nm

[2] = molecular target: T1, RORγ-LBD; assay: RORγ-Ligand Binding Domain (LBD) TR-FRET Assay Protocol I; format: biochemical; conditions: for EC50: RORγ-LBD lysate from SF9 cells, SRC1-2 peptide; for RORγ inhibition: Protocol I, assay measuring EC50 values less than or equal to 10 μM
Experimental: Part I—Procedures for RORγ-Ligand Binding Domain TR-FRET Assay Protocol I
Recombinant,HIS-tagged RORγ-LBD was expressed in SF9 cells using a baculovirus expression system. Cells were lysed and the lysate was used as a source for RORγ-LBD for the assay. A 1:80 dilution of RORγ-LBD lysate in assay buffer (25 mM HEPES pH 7.0, 100 mM NaCl, 0.01% Tween, 0.1% BSA) was prepared and 5 μL was added to each well (RORγ-LBD final concentration ˜3 nM). Control wells received lysate from SF9 cells not expressing RORγ-LBD.
Compounds to be tested were diluted to 100× final test concentration in DMSO and further diluted to 4× final test concentration using assay buffer to provide the test compound mixture. An aliquot (5 μL) of the test compound mixture was added to each well.
A 4× stock of biotinylated-LXXLL peptide from SRC1-2 (Biotin-[…]) was prepared in assay buffer and a 5 μL aliquot added to each well (450 nM final concentration). A 4× solution of europium tagged anti-HIS antibody (2 nM final concentration) and APC conjugated streptavidin (60 nM final concentration) were prepared and a 5 μL aliquot added to each well.
The final assay mixture was incubated for 4 hours to overnight, and the fluorescence signal was measured on an Envision plate reader: (Excitation filter=340 nm; APC emission=665 nm; Europium emission=615 nm; dichroic mirror=D400/D630; delay time=100 μs, integration time=200 μs).
EC50 values for test compounds were calculated from the quotient of the fluorescence signal at 665 nm divided by the fluorescence signal at 615 nm using GraphPad Prism software

T1 sequence (P51449 269-508): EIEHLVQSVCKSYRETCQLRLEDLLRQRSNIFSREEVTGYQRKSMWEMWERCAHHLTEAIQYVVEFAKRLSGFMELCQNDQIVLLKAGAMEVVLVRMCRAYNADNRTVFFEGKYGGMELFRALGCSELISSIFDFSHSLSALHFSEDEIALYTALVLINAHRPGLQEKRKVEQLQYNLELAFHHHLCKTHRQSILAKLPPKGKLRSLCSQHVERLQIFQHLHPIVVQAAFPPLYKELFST

| SMILES | EC50 [1] [nM] | EC50 [2] [nM] | RORγ inhibition [2] |
| --- | --- | --- | --- |
| Cc1nn(C(F)F)cc1S(=O)(=O)n1ncc2cnc(NC(=O)c3c(F)cccc3Cl)cc21 [Compound 11] | 324 | 447 |  |
| CC1COc2ncc(NC(=O)c3c(F)cccc3Cl)cc2N1S(=O)(=O)c1ccc(F)cc1 (centres unmarked) [Compound 12, 2-chloro-6-fluoro-N-[1-(4-fluorobenzenesulfonyl)-2-methyl-2,3-dihydro-1H-pyrido[2,3-b][1,4]oxazin-7-yl]benzamide] | 66 | 250 |  |
| O=C(Nc1cnc2c(c1)N(S(=O)(=O)c1ccc(F)cc1)CCO2)c1c(F)cccc1Cl [Compound 13, 2-chloro-6-fluoro-N-[1-(4-fluorobenzenesulfonyl)-2,3-dihydro-1H-pyrido[2,3-b][1,4]oxazin-7-yl]benzamide] |  | 174 |  |
| Cc1cccc(S(=O)(=O)N2C[C@H](C)Oc3ncc(NC(=O)c4c(F)cccc4Cl)cc32)c1 [Compound 14, (S)-2-chloro-6-fluoro-N-(3-methyl-1-(m-tolylsulfonyl)-2,3-dihydro-1H-pyrido[2,3-b][1,4]oxazin-7-yl)benzamide] | 22 | 166 |  |
| CCc1cccc(S(=O)(=O)N2C[C@H](C)Oc3ncc(NC(=O)c4c(F)cccc4Cl)cc32)c1 [Compound 15, (S)-2-chloro-N-(1-((3-ethylphenyl)sulfonyl)-3-methyl-2,3-dihydro-1H-pyrido-[2,3-b][1,4]oxazin-7-yl)-6-fluorobenzamide] | 10 | 31 |  |
| CC1COc2ncc(NC(=O)c3c(Cl)cccc3C(F)(F)F)cc2N1S(=O)(=O)c1ccc(F)cc1 (centres unmarked) [Compound 19] |  | 20 |  |
| N#Cc1cccc(S(=O)(=O)N2CCOc3ncc(NC(=O)c4c(F)cccc4Cl)cc32)c1 [Compound 21] |  | 200 |  |
| O=C(Nc1cnc2c(c1)N(S(=O)(=O)c1ccc(Cl)cc1)CCO2)c1c(F)cccc1Cl [Compound 22] |  | 90 |  |
| O=C(Nc1cnc2c(c1)N(S(=O)(=O)c1ccc(F)c(F)c1)CCO2)c1c(F)cccc1Cl [Compound 23] |  | 100 |  |
| O=C(Nc1cnc2c(c1)N(S(=O)(=O)c1cccc(C(F)(F)F)c1)C[C@@H](N1CCCC1=O)C2)c1c(Cl)cccc1Cl [Compound 81] | 35 |  |  |
| O=C(Nc1cnc2c(c1)N(S(=O)(=O)c1cccc(C(F)(F)F)c1)C[C@H](N1CCCC1=O)C2)c1c(Cl)cccc1Cl [Compound 82] | 12 |  |  |
| O=C(Nc1cnc2c(c1)N(S(=O)(=O)c1cccc(Cl)c1)C[C@H](CN1C(=O)COC1=O)O2)c1c(Cl)cccc1Cl [Compound 85] | 20 |  |  |
| CN1CC(=O)N(C[C@H]2CN(S(=O)(=O)c3cccc(Cl)c3)c3cc(NC(=O)c4c(Cl)cccc4Cl)cnc3O2)C1=O [Compound 86, (S)-2,6-dichloro-N-(1-((3-chlorophenyl)sulfonyl)-3-((3-methyl-2,5-dioxoimidazolidin-1-yl)methyl)-2,3-dihydro-1H-pyrido[2,3-b][1,4]oxazin-7-yl)benzamide] | 10 |  |  |
| CN1CCN(C[C@H]2CN(S(=O)(=O)c3cccc(Cl)c3)c3cc(NC(=O)c4c(Cl)cccc4Cl)cnc3O2)CC1=O [Compound 87, (S)-2,6-dichloro-N-(1-((3-chlorophenyl)sulfonyl)-3-((4-methyl-3-oxopiperazin-1-yl)methyl)-2,3-dihydro-1H-pyrido[2,3-b][1,4]oxazin-7-yl)benzamide] | 52 |  |  |
| CN(C)C[C@H]1CN(S(=O)(=O)c2cccc(Cl)c2)c2cc(NC(=O)c3c(Cl)cccc3Cl)cnc2O1 [Compound 88] | 42 |  |  |
| O=C(Nc1cnc2c(c1)N(S(=O)(=O)c1cccc(Cl)c1)C[C@H](CN1CC[C@@H](O)C1)O2)c1c(Cl)cccc1Cl [Compound 89] | 32 |  |  |
| O=C(Nc1cnc2c(c1)N(S(=O)(=O)c1cccc(Cl)c1)C[C@H](CN1CCOCC1)O2)c1c(Cl)cccc1Cl [Compound 90] | 30 |  |  |
| CN1CCN(C[C@H]2CN(S(=O)(=O)c3cccc(Cl)c3)c3cc(NC(=O)c4c(Cl)cccc4Cl)cnc3O2)CC1 [Compound 91] | 1330 |  |  |
| Cc1nn(C(F)F)cc1S(=O)(=O)N1C[C@H](CO)Cc2ncc(NC(=O)[C@@H](C)C(C)(C)C)cc21 [Compound 92, (S)-N-((R)-5-((1-(difluoromethyl)-3-methyl-1H-pyrazol-4-yl)sulfonyl)-7-(hydroxymethyl)-5,6,7,8-tetrahydro-1,5-naphthyridin-3-yl)-2,3,3-trimethylbutanamide] | 10000 |  |  |
| Cc1cccc(S(=O)(=O)N2CC(CO)Cc3ncc(NC(=O)c4c(Cl)cccc4Cl)cc32)c1 (centres unmarked) [Compound 94, 2,6-dichloro-N-(7-(hydroxymethyl)-5-(m-tolylsulfonyl)-5,6,7,8-tetrahydro-1,5-naphthyridin-3-yl)benzamide] | 20 |  |  |
| Cc1nn(C(F)F)cc1S(=O)(=O)N1C[C@H](CN2CC[C@@H](O)C2)Cc2ncc(NC(=O)[C@@H](C)C(C)(C)C)cc21 [Compound 95, (S)-N-((S)-5-((1-(difluoromethyl)-3-methyl-1H-pyrazol-4-yl)sulfonyl)-7-(((R)-3-hydroxypyrrolidin-1-yl)methyl)-5,6,7,8-tetrahydro-1,5-naphthyridin-3-yl)-2,3,3-trimethylbutanamide] | 4100 |  |  |
| Cc1nn(C(F)F)cc1S(=O)(=O)N1C[C@@H](CN2CC[C@@H](O)C2)Cc2ncc(NC(=O)[C@@H](C)C(C)(C)C)cc21 [Compound 96, (S)-N-((R)-5-((1-(difluoromethyl)-3-methyl-1H-pyrazol-4-yl)sulfonyl)-7-(((R)-3-hydroxypyrrolidin-1-yl)methyl)-5,6,7,8-tetrahydro-1,5-naphthyridin-3-yl)-2,3,3-trimethylbutanamide] | 168 |  |  |
| O=C(Nc1cnc2c(c1)N(S(=O)(=O)c1cccc(C(F)(F)F)c1)C[C@@H](N1CCOC1=O)C2)c1c(Cl)cccc1Cl [Compound 97, (S)-2,6-dichloro-N-(7-(2-oxooxazolidin-3-yl)-5-((3-(trifluoromethyl)phenyl)sulfonyl)-5,6,7,8-tetrahydro-1,5-naphthyridin-3-yl)benzamide] | 42 |  |  |

Continued, in another order:

| EC50 [1] [nM] | EC50 [2] [nM] | SMILES | RORγ inhibition [2] |
| --- | --- | --- | --- |
| 25 | 1880 | O=C(Nc1cnc2cnn(S(=O)(=O)c3cccc(C(F)(F)F)c3)c2c1)c1c(F)cccc1Cl [Compound 1, 2-chloro-6-fluoro-N-[1-(3-trifluoromethylbenzenesulfonyl)-1H-pyrazolo[4,3-b]pyridin-6-yl]benzamide] |  |
|  | 2400 | O=C(Nc1cc2c(cn1)cnn2S(=O)(=O)c1ccc(F)cc1)c1c(F)cccc1Cl [Compound 2, 2-chloro-6-fluoro-N-[1-(4-fluorobenzenesulfonyl)-1H-pyrazolo-[4,3-c]pyridin-6-yl]benzamide] |  |
|  | 48000 | N#Cc1cccc(S(=O)(=O)n2ncc3ncc(NC(=O)c4c(F)cccc4Cl)cc32)c1 [Compound 3] | did not provide measurable RORγ inhibition |
|  | 50000 | O=C(Nc1cc2c(cn1)cnn2S(=O)(=O)c1ccc(F)cc1)c1c(F)cccc1F [Compound 4] | did not provide measurable RORγ inhibition |
|  | 2610 | O=C(Nc1cc2c(cn1)cnn2S(=O)(=O)c1ccc(F)cc1)c1c(Cl)cccc1Cl [Compound 5] |  |
|  | 2410 | O=C(Nc1cc2c(cn1)cnn2S(=O)(=O)c1ccc(F)cc1)c1c(Cl)cccc1C(F)(F)F [Compound 6] |  |
|  | 6440 | O=C(Nc1cc2c(cn1)cnn2S(=O)(=O)c1cccc(Cl)c1)c1c(F)cccc1Cl [Compound 7] |  |
|  | 1060 | O=C(Nc1cc2c(cn1)cnn2S(=O)(=O)c1cccc(OC(F)F)c1)c1c(F)cccc1Cl [Compound 8] |  |
|  | 3520 | CC(C)(C)c1cccc(S(=O)(=O)n2ncc3cnc(NC(=O)c4c(F)cccc4Cl)cc32)c1 [Compound 9] |  |
| 4330 | 3620 | O=C(Nc1cc2c(cn1)cnn2S(=O)(=O)c1cccc(C(F)(F)F)c1)c1c(F)cccc1Cl [Compound 10] |  |
